Test results from patent US20030232743A1, “Compositions and methods for darkening the skin” (priority 2002, published 2003).

Tested on: Type IV pigmented epidermal equivalents (SkinEthic reconstructed human epidermis; normal human keratinocytes and melanocytes)
Experiment: Darkening in pigmented epidermal equivalents (DOPA and Fontana-Mason staining)
Format: cell-based
Set-up: key to Score DOPA staining (tyrosinase activity): 0: No change in DOPA staining and in melanin deposition; 1: Minimal increase in DOPA staining and/ or in pigment deposition; 2: Increased DOPA staining and/ or in pigment deposition; 3: Strong increase in DOPA staining and/ or in pigment deposition
Details: for Score F & M staining (Pigment deposition) / Score DOPA staining (tyrosinase activity): peptides at 100 μM in PBS, treated three or five days, harvested fourth or sixth day; for Score F & M staining (Pigment deposition): sectioned equivalents F&M stained; for Score DOPA staining (tyrosinase activity): whole equivalents DOPA stained; for Overall change of pigmentation (darkening), in words: peptides at 100 μM, compared with UVB irradiation (0.10 J/cm^2)
Experimental: Peptide 1 and Peptide 2 were tested for their ability to induce darkening in pigmented epidermal equivalents. The pigmented epidermal equivalents contain human normal melanocytes, together with normal, human-derived epidermal keratinocytes, which have been cultured to form a multi-layered, highly differentiated model of the human epidermis. Type IV pigmented epidermal equivalents (consists of normal human keratinocytes pooled from variety of phototype skins and normal human melanocytes derived from type IV phototype skin) were treated with test compounds for three or five days and samples were harvested on the fourth or sixth day of the study. The harvested equivalents were stained with DOPA (a substrate for tyrosinase) or with Fontana-Mason (F&M) (Sheenan D C, Hrapckak B B, eds: Theory and practice of Histo-Thchnology (St Louis: C V Mosby, 1980) pp 223-277). F&M staining identifies silver nitrate reducing activity, which, in skin, identifies melanin.
The Epidermal equivalents used were SkinEthic® reconstructed human epidermis from SkinEthic™ Laboratory (Nice, France). UV irradiation was performed with a UVB FS light source in an exposure chamber, with plate covers removed and Phosphate—buffered saline (PBS, from Gibco-BRL, Gaithersburg, Md.) present in the lower chamber. UVB intensity was measured with a UVX radiometer (UVP Inc., San Gabriel, Calif.). Equivalents were treated with 0.1-0.12 J/cm2. […] The peptides were assayed at 100 μM, and were dissolved in PBS.
On the fourth or sixth day of the study, the equivalents were fixed, sectioned and F&M stained, or they were DOPA stained as whole without sectioning, using standard techniques. Images of stained whole or sectioned equivalents were obtained and analyzed with Image Pro Plus 3.0 software (Media Cybernetics, Silver Spring, Md.). Parameters measured were surface area of stained material within melanocyte and keratinocyte and the total surface area of the cells in culture. In all experiments there was no difference between PBS-treated cells and untreated controls. At least three sections per equivalent, three equivalents per experiment were processed. DOPA-stained epidermal equivalents were evaluated for the change in tyrosinase activity. F&M-stained histological sections were evaluated for the change in pigment deposition. Due to the low content of melanin within the equivalent, it was not possible to quantify the level of pigment within melanocytes in F&M stained sections by image analysis. Therefore, we evaluate the pigment change using the scale defined in Table 1.

SMILES	Score F & M staining (Pigment deposition)	Score DOPA staining (tyrosinase activity)	Overall change of pigmentation (darkening), in words
COc1ccc(CN[C@@H](CCCN/C(N)=N/[N+](=O)[O-])C(=O)N[C@@H](CC(C)C)C(N)=O)cc1 [Peptide 1]	1-2	3	darkening levels similar to those produced by UVB irradiation
CC(C)C[C@H](NC(=O)[C@H](CCCN/C(N)=N/[N+](=O)[O-])NCc1ccc(OC(F)(F)F)cc1)C(N)=O [Peptide 2]	1-2	1-2	able to enhance pigment production
